Key:
Format in all cases: functional, cell-based
HepG2 = experiment: Antiproliferative activity against human HepG2 cells assessed as reduction in cell viability incubated for 48 hrs by MTT assay; details: HepG2, 48 h
Hep 3B2 = experiment: Antiproliferative activity against human Hep3B cells assessed as reduction in cell viability incubated for 48 hrs by MTT assay
SMMC-7721 = experiment: Antiproliferative activity against human SMMC-7721 cells assessed as reduction in cell viability incubated for 48 hrs by MTT assay
[1] = Homo sapiens, SMMC-7721, 48 h, read-out: IC50

Structure (SMILES) | IC50 (HepG2) | IC50 (Hep 3B2) | IC50 (SMMC-7721; smmc-7721) | IC50 (SMMC-7721; [1])
CCN(CC)CCOc1cc(O)c2c(=O)c(O[C@H]3O[C@H](C)[C@@H](O)[C@H](O)[C@@H]3O)c(-c3ccc(OC)cc3)oc2c1CC=C(C)C | > 10 µM | > 10 µM | Not Active | 
COc1ccc(-c2oc3c(CC=C(C)C)c(OCCCN4CCCC4)cc(O)c3c(=O)c2O[C@H]2O[C@H](C)[C@@H](O)[C@H](O)[C@@H]2O)cc1 | 6.3 µM | 7.6 µM |  | 6.1 µM
COc1ccc(-c2oc3c(CC=C(C)C)c(OCCN4CCC(O)CC4)cc(O)c3c(=O)c2O[C@H]2O[C@H](C)[C@@H](O)[C@H](O)[C@@H]2O)cc1 | > 10 µM | > 10 µM | Not Active | 
COc1ccc(-c2oc3c(CC=C(C)C)c(OCCCCN4CCNCC4)cc(O)c3c(=O)c2O[C@H]2O[C@H](C)[C@@H](O)[C@H](O)[C@@H]2O)cc1 | 7.4 µM | 8 µM | Not Active | 
COc1ccc(-c2oc3c(CC=C(C)C)c(OCCCCN4CCC(O)CC4)cc(O)c3c(=O)c2O[C@H]2O[C@H](C)[C@@H](O)[C@H](O)[C@@H]2O)cc1 | 6.5 µM | 5.7 µM |  | 7.1 µM
COc1ccc(-c2oc3c(CC=C(C)C)c(OCCOCCOCCN4CCCC4)cc(O)c3c(=O)c2O[C@H]2O[C@H](C)[C@@H](O)[C@H](O)[C@@H]2O)cc1 | > 10 µM | > 10 µM |  | > 10 µM
CCN(CC)CCCOc1cc(O)c2c(=O)c(O[C@H]3O[C@H](C)[C@@H](O)[C@H](O)[C@@H]3O)c(-c3ccc(OC)cc3)oc2c1CC=C(C)C | 5.5 µM | > 10 µM |  | > 10 µM
COc1ccc(-c2oc3c(CC=C(C)C)c(OCCCN4CCC(O)CC4)cc(O)c3c(=O)c2O[C@H]2O[C@H](C)[C@@H](O)[C@H](O)[C@@H]2O)cc1 | > 10 µM | 8.6 µM | Not Active | 
CCN(CC)CCCCCCOc1cc(O)c2c(=O)c(O[C@H]3O[C@H](C)[C@@H](O)[C@H](O)[C@@H]3O)c(-c3ccc(OC)cc3)oc2c1CC=C(C)C | 2.5 µM | 8.9 µM |  | 6.5 µM
CCN(CC)CCOCCOCCOc1cc(O)c2c(=O)c(O[C@H]3O[C@H](C)[C@@H](O)[C@H](O)[C@@H]3O)c(-c3ccc(OC)cc3)oc2c1CC=C(C)C | > 10 µM | > 10 µM |  | > 10 µM
COc1ccc(-c2oc3c(CC=C(C)C)c(OCCCN(C)C)cc(O)c3c(=O)c2O[C@H]2O[C@H](C)[C@@H](O)[C@H](O)[C@@H]2O)cc1 | > 10 µM | > 10 µM | Not Active | 
COc1ccc(-c2oc3c(CC=C(C)C)c(OCCCN4CCNCC4)cc(O)c3c(=O)c2O[C@H]2O[C@H](C)[C@@H](O)[C@H](O)[C@@H]2O)cc1 | > 10 µM | 3.8 µM | Not Active | 
COc1ccc(-c2oc3c(CC=C(C)C)c(OCCN4CCNCC4)cc(O)c3c(=O)c2O[C@H]2O[C@H](C)[C@@H](O)[C@H](O)[C@@H]2O)cc1 | > 10 µM | > 10 µM | Not Active | 
CCCCN(CCCC)CCCOc1cc(O)c2c(=O)c(O[C@H]3O[C@H](C)[C@@H](O)[C@H](O)[C@@H]3O)c(-c3ccc(OC)cc3)oc2c1CC=C(C)C | > 10 µM | 9.3 µM | Not Active | 
COc1ccc(-c2oc3c(CC=C(C)C)c(OCCN)cc(O)c3c(=O)c2O[C@H]2O[C@H](C)[C@@H](O)[C@H](O)[C@@H]2O)cc1 | > 10 µM | > 10 µM | Not Active | 
COc1ccc(-c2oc3c(CC=C(C)C)c(OCCCCN(C)C)cc(O)c3c(=O)c2O[C@H]2O[C@H](C)[C@@H](O)[C@H](O)[C@@H]2O)cc1 | > 10 µM | 8.7 µM | Not Active | 
COc1ccc(-c2oc3c(CC=C(C)C)c(OCCN(C)C)cc(O)c3c(=O)c2O[C@H]2O[C@H](C)[C@@H](O)[C@H](O)[C@@H]2O)cc1 | 9.2 µM | > 10 µM | Not Active | 
COc1ccc(-c2oc3c(CC=C(C)C)c(OCCOCCN4CCOCC4)cc(O)c3c(=O)c2O[C@H]2O[C@H](C)[C@@H](O)[C@H](O)[C@@H]2O)cc1 | > 10 µM | > 10 µM | Not Active | 
COc1ccc(-c2oc3c(CC=C(C)C)c(OCCCN)cc(O)c3c(=O)c2O[C@H]2O[C@H](C)[C@@H](O)[C@H](O)[C@@H]2O)cc1 | > 10 µM | > 10 µM | Not Active | 
COc1ccc(-c2oc3c(CC=C(C)C)c(OC[C@H](O)CN(C)C)cc(O)c3c(=O)c2O[C@H]2O[C@H](C)[C@@H](O)[C@H](O)[C@@H]2O)cc1 | > 10 µM | > 10 µM |  | > 10 µM
COc1ccc(-c2oc3c(CC=C(C)C)c(OCCOCCN4CCC(O)CC4)cc(O)c3c(=O)c2O[C@H]2O[C@H](C)[C@@H](O)[C@H](O)[C@@H]2O)cc1 | > 10 µM | > 10 µM | Not Active | 
COc1ccc(-c2oc3c(CC=C(C)C)c(OCCOCCN4CCCC4)cc(O)c3c(=O)c2O[C@H]2O[C@H](C)[C@@H](O)[C@H](O)[C@@H]2O)cc1 | 8.6 µM | 6.4 µM |  | 8.6 µM
